Biological target: Fibrinogen-D fragment
Test: Isothermal titration calorimetry (VP-ITC) of Coa peptides with Fg-D fragment
Parameters: species or system human
Settings: one-binding site model, 10 μM Fg-D, read-out: dissociation constant (KD) to Fg-D
Protocol: Binding isotherms for the interaction of Fg-D with Coa peptide sCoa-RI (FIG. 14A), sCoa-R13 (FIG. 14B) and sCoa-RV (FIG. 14C) were generated by titrating the peptides (˜200 μM) into an ITC cell containing 10 μM Fg-D. The top panels show heat difference upon injection of coa peptides, and the lower panels show integrated heat of injections. The data were fitted to a one-binding site model (bottom panels), and binding affinities are expressed as dissociation constants (KD) or the reciprocal of the association constants determined by Microcal Origin software. N represents the binding ratio. To generate more quantitative binding data for the Coa peptide Fg interaction isothermal titration calorimetry and titrated the Coa peptides into a solution containing a fixed concentration of Fg-D fragments was used.
Isothermal titration calorimetry—The interaction between Coa peptides and the soluble, isolated Fibrinogen-D fragment was further characterized by isothermal titration calorimetry (ITC) using a VP-ITC microcalorimeter. The Fibrinogen-D fragment used in these studies was generated by digesting full length Fibrinogen with plasmin for 4 h and fractionating the digestion products by gel filtration chromatography. The ITC cell contained 10 μM Fibrinogen-D fragments and the syringe contained 150-200 μM Coa peptides in TBS (25 mM Tris, 3.0 mM KCl and 140 mM NaCl, pH 7.4). […]

Fibrinogen-D fragment, sequence (P02671 130-216 limits assumed): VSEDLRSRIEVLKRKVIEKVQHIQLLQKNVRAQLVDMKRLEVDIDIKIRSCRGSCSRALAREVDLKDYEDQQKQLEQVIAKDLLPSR
Fibrinogen-D fragment, sequence (P02675 164-491 limits assumed, further chain): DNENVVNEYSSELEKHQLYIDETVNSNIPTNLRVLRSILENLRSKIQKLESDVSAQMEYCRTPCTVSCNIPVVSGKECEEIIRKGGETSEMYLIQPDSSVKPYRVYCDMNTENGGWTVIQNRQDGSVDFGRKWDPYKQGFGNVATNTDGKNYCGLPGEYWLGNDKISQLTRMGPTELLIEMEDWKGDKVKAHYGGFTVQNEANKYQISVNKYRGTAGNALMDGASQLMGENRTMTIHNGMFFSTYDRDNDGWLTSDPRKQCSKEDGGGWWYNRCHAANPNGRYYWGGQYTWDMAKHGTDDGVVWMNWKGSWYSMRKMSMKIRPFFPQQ
Fibrinogen-D fragment, sequence (P02679 114-432 limits assumed, further chain): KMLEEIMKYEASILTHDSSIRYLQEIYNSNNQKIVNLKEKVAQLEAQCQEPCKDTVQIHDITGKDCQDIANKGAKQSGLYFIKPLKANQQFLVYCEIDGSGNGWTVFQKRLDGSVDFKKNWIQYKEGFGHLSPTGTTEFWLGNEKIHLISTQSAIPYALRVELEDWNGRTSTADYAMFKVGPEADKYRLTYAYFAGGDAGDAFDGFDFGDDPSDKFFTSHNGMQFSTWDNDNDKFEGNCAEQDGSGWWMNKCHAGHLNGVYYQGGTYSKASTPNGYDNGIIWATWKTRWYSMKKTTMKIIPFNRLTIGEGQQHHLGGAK

sCoa-RI: synthetic peptide, first 27 residues of repeat region, Coa 506-532 (ETNAYNVTTHANGQVSYGARPTYKKPS)
Kd: 88 nM

Reference: patent US11407819B2, “Compositions and use of a fibrinogen binding motif present in EFB and COA for therapeutics and vaccines against Staphylococcus aureus” (priority 2013, dated 2022)
